Literature values as cited in PMC2698789 (Pancreas, 2008).

System: sst 2 receptor

## C[C@@H](O)[C@@H]1NC(=O)[C@H](CCCCN)NC(=O)[C@@H](Cc2c[nH]c3ccccc23)NC(=O)[C@H](Cc2ccccc2)NC(=O)[C@@H](NC(=O)[C@H](N)Cc2ccccc2)CSSC[C@@H](C(=O)N[C@H](CO)[C@@H](C)O)NC1=O [octreotide, Octreotide acetate]
  Receptor subtype preference among somatostatin receptors sst 1–sst 5: binds preferentially to sst 2
